“And” between values parts separate entries of the source, which are not always exact repeats. Equal values may be shown once.
Assays:
5-HT3 receptor [1] = target: T1, 5-HT3 receptor (Mus musculus, UniProt P23979); assay: Specific binding with 3H-GR65630 in membranes from various tissues of transgenic and B6SJL/F1 control mice; conditions: Cortex membranes, transgenic mice
T1 construct: cortices and cerebelli were removed and homogenized by hand in ice cold Hepes buffer; from tissue; host or cells: Washed membranes from cortex, cerebellum, liver, lung, heart, spleen, kidney, small intestine, testis and skeletal muscle of transgenic and B6SJL/F1 control mice
T1 sequence (P23979 24-489): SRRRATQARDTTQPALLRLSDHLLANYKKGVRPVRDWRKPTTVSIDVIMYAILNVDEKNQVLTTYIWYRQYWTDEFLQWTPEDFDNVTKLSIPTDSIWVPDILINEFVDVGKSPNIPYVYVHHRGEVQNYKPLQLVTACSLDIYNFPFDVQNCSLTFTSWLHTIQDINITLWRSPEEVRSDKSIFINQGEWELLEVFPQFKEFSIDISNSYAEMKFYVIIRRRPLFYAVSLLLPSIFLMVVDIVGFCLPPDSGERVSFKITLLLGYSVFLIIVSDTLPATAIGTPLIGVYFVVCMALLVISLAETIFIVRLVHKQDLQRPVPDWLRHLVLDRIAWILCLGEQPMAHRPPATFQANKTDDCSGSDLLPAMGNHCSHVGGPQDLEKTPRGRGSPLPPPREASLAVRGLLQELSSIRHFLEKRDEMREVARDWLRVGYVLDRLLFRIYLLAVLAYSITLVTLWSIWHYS
Protocol: (§1) For homogenate binding studies, cortices and cerebelli were removed and homogenized by hand in ice cold Hepes buffer (50 mM, pH 7.5) and centrifuged at 500 g for 5 minutes at 4° C. Liver, lung, heart, spleen, kidney, small intestines, testes, and skeletal muscle (from hind limb) were homogenized with an Omni tissue chopper. Membranes were pelleted by centrifugation at 20,000 g for 20 minutes at 4° C. and the pellets washed twice before suspension to 3 mg/ml in a buffer containing 145 mM NaCl, 5 mM KCl, 1, mM MgCl2, 1 mM CaCl2, 10 mM glucose, and 10 mM TRIS, pH 7.5. Saturation curves were carried out with 0.0125-25 nM ^3H-GR65630 at 37° C. for 30 minutes with 300 μg total protein. Incubation was terminated by dilution with ×10 volume (5 ml) of ice-cold buffer followed by rapid filtration onto Whatman GF/B filters. Filters were washed twice with 5 ml ice-cold buffer and counted by scintillation counting in EcoLite (ICN) scintillation cocktail. Non-specific binding (NSB) was determined with 0.125-256 μM tropisetron. Displacement binding was carried out the same as saturation binding except with 1 nM ^3H-GR65630 and NSB defined with 10 μM tropisetron. Protein concentrations were determined by Folin phenol reagent (Lowry et al., J. Biol. Chem. 193: 256-275, 1951).

5-HT3 receptor [2] = assay: as above; set-up: species or system mouse
Protocol: as §1

5-HT3 receptor [3] = target: T1, 5-HT3 receptor; assay: Homogenate saturation binding with 3H-GR65630 in cortical membranes of transgenic and B6SJL/F1 control mice
Protocol: as §1

5-HT3 receptor [4] = assay: as above; set-up: species or system mouse; conditions: cortical membranes, B6SJL/F1 control mice
Protocol: as §1

[5] = cortical membranes, 5-HT3 transgenic mice

Cc1[nH]cnc1CCC(=O)c1cn(C)c2ccccc12 [^3H-GR65630]
Specific binding (means ± SEM) (5-HT3 receptor [1]): 969.6 ± 190.5 fmol/mg protein | Specific binding (means ± SEM) (5-HT3 receptor [2]; Cortex membranes, B6SJL/F1 control mice): 7.2 ± 2.9 fmol/mg protein | Specific binding (means ± SEM) (5-HT3 receptor [2]; Heart membranes, B6SJL/F1 control mice): 0.25 ± 5.4 fmol/mg protein | Specific binding (means ± SEM) (5-HT3 receptor [2]; Heart membranes, transgenic mice): 3.9 ± 1.8 fmol/mg protein | Specific binding (means ± SEM) (5-HT3 receptor [2]; Kidney membranes, B6SJL/F1 control mice): 3.9 ± 3.1 fmol/mg protein | Specific binding (means ± SEM) (5-HT3 receptor [2]; Kidney membranes, transgenic mice): 16.9 ± 8.0 fmol/mg protein | Specific binding (means ± SEM) (5-HT3 receptor [2]; Lung membranes, transgenic mice): 2.7 ± 4.1 fmol/mg protein | Specific binding (means ± SEM) (5-HT3 receptor [2]; Skeletal muscle membranes, B6SJL/F1 control mice): 2.7 ± 0.4 fmol/mg protein | Specific binding (means ± SEM) (5-HT3 receptor [2]; Skeletal muscle membranes, transgenic mice): 8.0 ± 2.7 fmol/mg protein | Specific binding (means ± SEM) (5-HT3 receptor [2]; Small intestines membranes, B6SJL/F1 control mice): 26.6 ± 11.0 fmol/mg protein | Specific binding (means ± SEM) (5-HT3 receptor [2]; Small intestines membranes, transgenic mice): 26.0 ± 7.7 fmol/mg protein | Specific binding (means ± SEM) (5-HT3 receptor [2]; Spleen membranes, B6SJL/F1 control mice): 1.7 ± 3.9 fmol/mg protein | Specific binding (means ± SEM) (5-HT3 receptor [2]; Spleen membranes, transgenic mice): 8.2 ± 7.2 fmol/mg protein | Bmax (5-HT3 receptor [3]; [5]): 2155 fmol/mg protein and 2155±129 fmol/mg protein | Hill no. (Hill plot slope) (5-HT3 receptor [3]; [5]): 1.0 | Kd (5-HT3 receptor [3]; [5]): 1.7 nM | Bmax (5-HT3 receptor [3]; transgenic mice membranes): 2.5 pmol/mg protein | Bmax (5-HT3 receptor [4]): 21 fmol/mg protein and 21±10 fmol/mg protein | Kd (5-HT3 receptor [4]; n=3 (FIG. 2 legend, unit inferred)): 1.6 ± 2.3 nM
